In the data set the test system is rat DRG sensory neurons. Briefly: Number of DRG neurons (cytotoxicity, high content imaging). In kind it is cell-based. Particulars: also RAW264.7 and HMEC. The protocol: We initially determined the cytotoxic effects of xibalbins on primary sensory neurons from adult male rats cultured in vitro [2]. […] We exposed overnight cultures of dissociated rat dorsal root ganglions (DRGs) to xibalbins for 5 and 30 min. Subsequently, all cells were fixed and immunocytochemically stained for the neuronal marker UCHL1 to identify neurons. The entire culture was digitally scanned using high content imaging (HCI) microscopy, and cell numbers, UCHL1 staining per cell, and cell size was analyzed. No loss of neurons was induced by either of the tested xibalbins, even at the highest concentration of 0.8 µg/µL (Additional File 3: Figure S2). […] We further investigated the potential toxicity of xibalbins in monocyte/macrophage-like cells (RAW264.7) and human microvascular endothelial cells (HMEC); see Additional File 5: Figure S4 The viability of RAW264.7 cells was detected using a formazan-based assay, while the proliferation of HMECs was assessed by measuring the number of crystal violet-stained cells.
Male Sprague Dawley rats (250–400 g, 8–16 weeks old) were obtained from Envigo. […]
Stained cells were scanned with a CX7-LZR (Thermo Fisher Scientific) HCI system. Images were acquired with a 10 × objective and analyzed using the cellomics software package (Thermo Fisher Scientific). […] The resulting objects were quantified for average object intensity in all other color channels. […]

Positions of bridges follow the written chain, without caps; N, C: chain ends. No end group written: not given here.

Take “KRSCIRRFGRCDHRPNDCCYNSSCRCNLWGSNCRCQRMGLFQKWGK (disulfide 4-19, 11-24, 18-35, 26-33) [xib13]”: the “cytolytic or cytotoxic activity” value is listed as “do not show overt cytolytic or cytotoxic activity”.
Under “RLFCIRHHKYCGHRPKRCCSGLFCRCNTFGTNCRCQSKGALGKLI (disulfide 4-19, 11-24, 18-35, 26-33) [xib1]” stands “do not show overt cytolytic or cytotoxic activity”.

The record behind these values is article PMC11288129, “Diversely evolved xibalbin variants from remipede venom inhibit potassium channels and activate PKA-II and Erk1/2 signaling” (BMC Biology, 2024).
